Earlier results, collected in patent publication US20130345296A1, “Compositions Comprising a Taxane for Coating Medical Devices” (AVIDAL VASCULAR GMBH, priority 2010, published 2013).

Key:
microtubules = conditions: in vitro studies; Rowinsky et al. (1990)
[1] = test system: leukemia, colon, breast, melanoma, sarcomas, and Lewis lung tumor systems; conditions: Tarr et al. (1987); Horwitz (1992)

CC(=O)O[C@H]1C(=O)[C@@]2(C)[C@H]([C@H](OC(=O)c3ccccc3)[C@]3(O)C[C@H](OC(=O)[C@H](O)[C@@H](NC(=O)c4ccccc4)c4ccccc4)C(C)=C1C3(C)C)[C@]1(OC(C)=O)CO[C@@H]1C[C@@H]2O [taxol, paclitaxel]
concentrations of taxol that stabilize microtubules (microtubules): 0.1 to 10.0 µg/mL | activity against tumor systems [1]: active
